Experimental data reported in ChEMBL document CHEMBL1151444, “Failure of current cefepime breakpoints to predict clinical outcomes of bacteremia caused by gram-negative organisms” (2007).

Experiments:
Assay type in all cases: functional
Proteus sp. = test: Antibacterial activity in Proteus sp. infected patient assessed as mortality after 28 days
Serratia sp. = test: Antibacterial activity in Serratia sp. infected patient assessed as mortality after 28 days
Klebsiella sp. = test: Antibacterial activity in Klebsiella sp. infected patient assessed as mortality after 28 days
Pseudomonas aeruginosa = test: Antibacterial activity in Pseudomonas aeruginosa infected patient assessed as mortality after 28 days
Enterobacter sp. = test: Antibacterial activity in Enterobacter sp. infected patient assessed as mortality after 28 days
Escherichia coli = test: Antibacterial activity in Escherichia coli infected patient assessed as mortality after 28 days

## CO/N=C(\C(=O)N[C@@H]1C(=O)N2C(C(=O)[O-])=C(C[N+]3(C)CCCC3)CS[C@H]12)c1csc(N)n1 [CEFEPIME]
Proteus sp.
  Activity: 25%
Serratia sp.
  Activity: 23.8%
Klebsiella sp.
  Activity: 30.4%
Pseudomonas aeruginosa
  Activity: 39.1%
Enterobacter sp.
  Activity: 21.7%
Escherichia coli
  Activity: 21.2%
